Common to all, as to test: competitive isoTOP-ABPP
The target in assay [1] is T1, KPNA2 Importin subunit alpha-2 (Homo sapiens, UniProt P52292).
T1 construct: isoTOP-ABPP experiments performed in cell lysates (in vitro); endogenous in cells; host or cells: soluble proteome of human cancer cell lines (MDA-MB-231, Ramos, Jurkat)
The class given is binding. As to conditions: for isoTOP-ABPP ratio (R) at liganded lysine P52292_K459: sol, 231. The procedure, abridged:
(§1)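 Fragments at 50 μM (activated esters) or 100 μM (guanidinylating agents) were incubated with 0.5 ml lysate before probe labeling. After 0.1 mM STP-alkyne for 1 h, samples were clicked to isotopically distinct TEV tags, and R taken as DMSO-over-compound MS1 peak-area ratio.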

The target of assay [2] is T2, GLUD1 Glutamate dehydrogenase 1, mitochondrial (Homo sapiens, UniProt P00367).
T2 construct: isoTOP-ABPP experiments performed in cell lysates (in vitro); endogenous in cells; host or cells: MDA-MB-231 soluble lysate
The class given is binding. The following applies: for isoTOP-ABPP ratio (R) at liganded lysine P00367_K480: sol, 231. The procedure, abridged:
as §1

Assay [3] has as its target T3, ABHD10 Abhydrolase domain-containing protein 10, mitochondrial (Homo sapiens, UniProt Q9NUJ1).
T3 construct: endogenous in cells; host or cells: MDA-MB-231 lysate
T3 sequence (Q9NUJ1 53-306): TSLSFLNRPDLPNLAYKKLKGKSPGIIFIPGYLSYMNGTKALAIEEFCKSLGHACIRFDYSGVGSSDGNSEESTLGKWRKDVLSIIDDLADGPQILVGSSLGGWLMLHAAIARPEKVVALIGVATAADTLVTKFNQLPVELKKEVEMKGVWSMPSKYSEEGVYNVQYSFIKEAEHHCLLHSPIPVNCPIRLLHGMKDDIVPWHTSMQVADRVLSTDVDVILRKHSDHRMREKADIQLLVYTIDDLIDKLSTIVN
The class given is binding. The arrangement: key to isoTOP-ABPP reactivity ratio at lysine Q9NUJ1_K185: R = MS1 peak area ratio, DMSO (heavy) / compound-treated (light); capped at 20. As to conditions: for isoTOP-ABPP ratio (R) at liganded lysine Q9NUJ1_K185: sol, 231. How it is done:
(§2) In vitro covalent fragment treatment for isoTOP-ABPP. All compounds were made up as solutions in DMSO (100×) and were used at a final concentration of 50 μM for activated esters and 100 μM for guanidinylating agents. For each profiling sample, 0.5 ml of lysate was treated with 5 μl of the 100× compound stock solution or 5 μl of DMSO. Samples were treated with activated esters for
(§3) STP-alkyne labeling and click chemistry. For concentration-dependent reactivity measurements by isoTOP-ABPP, 0.5 ml proteome aliquots were treated at ambient temperature with 1 mM STP-alkyne 1 (5 μl of 100 mM stock in DMSO) and 0.1 mM STP alkyne 1 (5 μl of 10 mM stock in DMSO), respectively. For competitive isoTOP-ABPP, after in vitro fragment treatment (detailed above), the samples were labeled for 1 h at ambient temperature with 0.1 mM STP-alkyne 1 (5 μl of 10 mM stock in DMSO). Samples were conjugated by copper-mediated azide-alkyne cycloaddition (CuAAC) to either the light (1 mM STP-alkyne or fragment treated) or heavy (0.1 mM STP-alkyne or DMSO treated) TEV tags (10 μl of 5 mM stocks in DMSO, final concentration=100 μM) using tris(2-carboxyethyl)phosphine hydrochloride
(§4) R value calculation and processing. The ratios of light and heavy MS1 peaks for each unique peptide were quantified with a CIMAGE software using default parameters (3 MS1 acquisitions per peak and signal to noise threshold set to 2.5). For reactivity measurements by isoTOP-ABPP, the R value was calculated from the ratio of MS1 peak areas, comparing the 1 mM STP alkyne sample (light TEV tag) with the 0.1 mM STP alkyne sample (heavy TEV tag). For competitive isoTOP-ABPP, the R value was calculated from the ratio of MS1 peak areas, comparing the DMSO treated sample (heavy TEV tag) with the compound treated sample (light TEV tag). […] Ratios for unique peptide entries are calculated for each experiment; overlapping peptides with the same modified lysine (for example, different charge states, MudPIT chromatographic steps or tryptic termini) are grouped together and the median ratio is reported as the final ratio (R). The peptide ratios reported by CIMAGE were further filtered to ensure the removal or correction of low-quality ratios in each individual data set. The quality filters applied were the following: removal of half tryptic peptides; for ratios with high standard deviations from the median (90% of the median or above) the lowest ratio was taken instead of the median; removal of peptides with R=20 and only a single MS2 event triggered during the elution of the parent ion; manual annotation of all the peptides with ratios of 20, removing any peptides with low quality elution profiles that remained after the previous curation steps (only done for competitive isoTOP-ABPP).
(§5) Cross-data processing for fragment screening. For compound treated samples, biological replicates of the same condition were averaged, if the standard deviation was below 60% of the mean; otherwise, for lysines with at least one R value <4 for a particular compound, the lowest value of the ratio set was taken. For lysines, where all R values for a particular compound were ≥4, the average was reported. For peptides containing several possible modified lysines, the lysine with the highest number of quantification events was used for analysis and the remaining, redundant peptides were reported as alternative modification sites. Peptides included in the aggregate dataset (those used for further bioinformatics and statistical analyses) were required to have been quantified in 2 experiments for competitive isoTOP-ABPP. Lysines were categorized as liganded, if they had at least one ratio R≥4 (hit fragments). For liganded lysines with R=20 for all liganding events, lysines were required to have been quantified with R=20 in two separate experiments and were further required to have been quantified with R<20 in one additional experiment.

Assay [4] concerns the target T4, MAP1LC3B Microtubule-associated proteins 1A/1B light chain (Homo sapiens, UniProt Q9GZQ8).
T4 construct: isoTOP-ABPP experiments performed in cell lysates (in vitro); endogenous in cells; host or cells: soluble proteome of human cancer cell lines (MDA-MB-231; Ramos and Jurkat also prepared)
The class given is binding. As to conditions: for isoTOP-ABPP ratio (R) at liganded lysine Q9GZQ8_K51: sol, 231. The arrangement: key to isoTOP-ABPP reactivity ratio at lysine Q9GZQ8_K51: R = MS1 peak area ratio, DMSO (heavy) / compound-treated (light). The method, then:
as §2, §3, §4, §5

For assay [5], the target named is T5, ABCE1 ATP-binding cassette sub-family E member 1 (Homo sapiens, UniProt P61221).
T5 construct: isoTOP-ABPP experiments performed in cell lysates (in vitro); endogenous in cells; host or cells: soluble proteome of human cancer cell lines (MDA-MB-231, Ramos, Jurkat)
The following applies: for isoTOP-ABPP ratio (R) at liganded lysine P61221_K478 / isoTOP-ABPP ratio (R) at liganded lysine P61221_K191: sol, 231. The method, then:
as §2, §3, §4, §5

Assay [6] concerns the target T6, HDHD3 Haloacid dehalogenase-like hydrolase domain-containing protein 3 (Homo sapiens, UniProt Q9BSH5).
T6 construct: isoTOP-ABPP experiments performed in cell lysates (in vitro); endogenous in cells; host or cells: soluble proteome of human cancer cell lines (MDA-MB-231; Ramos and Jurkat also prepared)
T6 sequence (Q9BSH5 1-251): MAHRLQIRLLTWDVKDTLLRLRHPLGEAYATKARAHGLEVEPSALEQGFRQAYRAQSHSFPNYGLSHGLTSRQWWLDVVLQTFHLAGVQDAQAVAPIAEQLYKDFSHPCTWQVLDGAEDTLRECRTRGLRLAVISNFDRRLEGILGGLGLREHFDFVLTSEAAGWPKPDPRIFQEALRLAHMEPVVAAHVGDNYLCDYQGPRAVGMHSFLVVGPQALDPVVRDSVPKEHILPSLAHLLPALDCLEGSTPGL
The class given is binding. As to conditions: for isoTOP-ABPP ratio (R) at liganded lysine Q9BSH5_K15: sol, 231. The arrangement: key to isoTOP-ABPP reactivity ratio at lysine Q9BSH5_K15: R = MS1 peak area ratio, DMSO (heavy) / compound-treated (light). How it is done:
as §2, §3, §4, §5

For assay [7], the target named is T7, SRP54 Signal recognition particle 54 kDa protein (Homo sapiens, UniProt P61011).
T7 construct: isoTOP-ABPP experiments performed in cell lysates (in vitro); endogenous in cells; host or cells: soluble proteome of human cancer cell lines (MDA-MB-231, Ramos, Jurkat)
The class given is binding. The following applies: 50 uM, in vitro, sol, 231. The method, then:
as §2, §3, §4, §5

T2 sequence (P00367 54-558): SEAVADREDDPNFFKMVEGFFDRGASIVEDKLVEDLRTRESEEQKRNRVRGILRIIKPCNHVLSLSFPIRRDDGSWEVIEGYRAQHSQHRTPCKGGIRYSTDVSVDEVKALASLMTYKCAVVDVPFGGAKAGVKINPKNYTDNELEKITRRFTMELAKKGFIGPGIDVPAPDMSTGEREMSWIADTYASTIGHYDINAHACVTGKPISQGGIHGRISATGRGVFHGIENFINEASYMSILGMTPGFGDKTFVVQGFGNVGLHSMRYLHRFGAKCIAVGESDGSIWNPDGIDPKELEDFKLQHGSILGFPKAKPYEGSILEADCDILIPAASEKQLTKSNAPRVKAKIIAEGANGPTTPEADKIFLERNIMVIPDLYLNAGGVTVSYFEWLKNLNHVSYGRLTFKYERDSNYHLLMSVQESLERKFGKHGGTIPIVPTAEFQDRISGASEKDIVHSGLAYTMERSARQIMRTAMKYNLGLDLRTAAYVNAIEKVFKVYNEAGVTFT
T7 sequence (P61011 whole entry): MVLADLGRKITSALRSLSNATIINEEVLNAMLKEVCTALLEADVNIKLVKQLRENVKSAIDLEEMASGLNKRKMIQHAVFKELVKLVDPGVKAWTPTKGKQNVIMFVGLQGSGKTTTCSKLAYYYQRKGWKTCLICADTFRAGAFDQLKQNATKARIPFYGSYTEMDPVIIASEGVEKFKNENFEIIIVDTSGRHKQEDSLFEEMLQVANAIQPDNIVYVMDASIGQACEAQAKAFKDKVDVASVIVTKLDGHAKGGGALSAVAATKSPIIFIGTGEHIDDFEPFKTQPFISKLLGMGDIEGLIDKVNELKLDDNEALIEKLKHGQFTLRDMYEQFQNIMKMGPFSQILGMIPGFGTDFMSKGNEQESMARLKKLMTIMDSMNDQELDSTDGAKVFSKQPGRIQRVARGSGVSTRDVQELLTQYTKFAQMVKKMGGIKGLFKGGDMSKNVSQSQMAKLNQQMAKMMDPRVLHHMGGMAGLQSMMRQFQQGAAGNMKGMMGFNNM

For the compound `O=C(CN1C(=O)c2ccccc2C1=O)Oc1c(F)c(F)c(F)c(F)c1F` [fragment 27, Pentafluorophenyl 2-(1,3-dioxoisoindolin-2-yl)acetate], the “isoTOP-ABPP reactivity ratio at lysine P52292_K459” value in assay [1] (50 uM, 231 sol, in vitro) was 1.3. Further, in assay [2] (50 uM, 231 sol, in vitro), the “isoTOP-ABPP reactivity ratio at lysine P00367_K480” value came to 2.0. Also, the “isoTOP-ABPP reactivity ratio at lysine Q9NUJ1_K185” value in assay [3] (50 uM, 231 sol, in vitro) stood at 1.9. Further, in assay [4] (50 uM, 231 sol, in vitro), the “isoTOP-ABPP reactivity ratio at lysine Q9GZQ8_K51” value worked out at 1.0. Also, the “isoTOP-ABPP reactivity ratio at lysine P61221_K478” value in assay [5] (50 uM, 231 sol, in vitro) is 2.1. Moreover, in assay [6] (50 uM, 231 sol, in vitro), the “isoTOP-ABPP reactivity ratio at lysine Q9BSH5_K15” value was found to be 2.3.

Consider `O=C(CC12CC3CC(CC(C3)C1)C2)Oc1ccc([N+](=O)[O-])cc1[N+](=O)[O-]` [fragment 38, 2,4-Dinitrophenyl 2-(adamantan-1-yl)acetate], for which, in assay [1] (50 uM, in vitro), the “isoTOP-ABPP ratio (R) at liganded lysine P52292_K459” value is on record as 20.0. Besides, the “isoTOP-ABPP ratio (R) at liganded lysine P00367_K480” value in assay [2] (50 uM, in vitro) came out at 1.3. Moreover, the “isoTOP-ABPP ratio (R) at liganded lysine Q9NUJ1_K185” value in assay [3] (50 uM, in vitro) is given as 3.3. The “isoTOP-ABPP ratio (R) at liganded lysine Q9GZQ8_K51” value in assay [4] (50 uM, in vitro) was 0.8. Besides, in assay [5] (50 uM, in vitro), the “isoTOP-ABPP ratio (R) at liganded lysine P61221_K478” value stood at 0.9. Besides, in assay [6] (50 uM, in vitro), the “isoTOP-ABPP ratio (R) at liganded lysine Q9BSH5_K15” value is reported as 1.2.

On to `O=C(Oc1ccc([N+](=O)[O-])cc1[N+](=O)[O-])c1ccccc1Nc1cccc(C(F)(F)F)c1` [fragment 40, 2,4-Dinitrophenyl 2-((3-(trifluoromethyl)phenyl)amino)benzoate], for which the “isoTOP-ABPP ratio (R) at liganded lysine P52292_K459” value in assay [1] (50 uM, in vitro) was determined as 1.7. The “isoTOP-ABPP ratio (R) at liganded lysine P00367_K480” value in assay [2] (50 uM, in vitro) is on record as 1.2. Also, the “isoTOP-ABPP ratio (R) at liganded lysine Q9NUJ1_K185” value in assay [3] (50 uM, in vitro) is on record as 0.9. Also, the “isoTOP-ABPP ratio (R) at liganded lysine Q9GZQ8_K51” value in assay [4] (50 uM, in vitro) was 1.0. Besides, in assay [5] (50 uM, in vitro), the “isoTOP-ABPP ratio (R) at liganded lysine P61221_K191” value is given as 0.9 and the “isoTOP-ABPP ratio (R) at liganded lysine P61221_K478” value amounted to 1.0. In addition, the “isoTOP-ABPP ratio (R) at liganded lysine Q9BSH5_K15” value in assay [6] (50 uM, in vitro) stood at 0.9.

In the case of `CC(=O)Oc1ccc([N+](=O)[O-])cc1[N+](=O)[O-]` [fragment 43, 2,4-Dinitrophenyl acetate], the “isoTOP-ABPP ratio (R) at liganded lysine P52292_K459” value in assay [1] (50 uM, in vitro) is on record as 2.6. In addition, in assay [2] (50 uM, in vitro), the “isoTOP-ABPP ratio (R) at liganded lysine P00367_K480” value was determined as 3.9. For the same compound, the “isoTOP-ABPP ratio (R) at liganded lysine Q9NUJ1_K185” value in assay [3] (50 uM, in vitro) was found to be 1.3. For the same compound, the “isoTOP-ABPP ratio (R) at liganded lysine P61011_K81” value in assay [7] came out at 20.0. For the same compound, in assay [5] (50 uM, in vitro), the “isoTOP-ABPP ratio (R) at liganded lysine P61221_K191” value was 1.3 and the “isoTOP-ABPP ratio (R) at liganded lysine P61221_K478” value came to 1.4. Further, the “isoTOP-ABPP ratio (R) at liganded lysine Q9BSH5_K15” value in assay [6] (50 uM, in vitro) came out at 3.1.

Take `CC(C)(C)OC(=O)N=C(NC(=O)OC(C)(C)C)n1cccn1` [fragment 50, reference compound]: the “isoTOP-ABPP ratio, lysine P52292_K459” value in assay [1] (100 uM_231_sol_in vitro) is reported as 1.6. The “isoTOP-ABPP ratio, lysine P00367_K480” value in assay [2] (100 uM_231_sol_in vitro, possible other lysine P00367_K477) was 1.3. For the same compound, the “isoTOP-ABPP ratio, lysine Q9NUJ1_K185” value in assay [3] (100 uM_231_sol_in vitro) came out at 1.3. In addition, in assay [4] (100 uM_231_sol_in vitro), the “isoTOP-ABPP ratio, lysine Q9GZQ8_K51” value is reported as 4.6. Also, in assay [5] (100 uM_231_sol_in vitro), the “isoTOP-ABPP ratio, lysine P61221_K191” value stood at 14.1 and the “isoTOP-ABPP ratio, lysine P61221_K478” value was found to be 2.1. The “isoTOP-ABPP ratio, lysine Q9BSH5_K15” value in assay [6] (100 uM_231_sol_in vitro) worked out at 2.8.
